Assay results taken from ChEMBL document CHEMBL1156829 (Proc Natl Acad Sci U S A, 2008).

Legend:
Plasmodium falciparum [1] = assay: NOVARTIS: Inhibition of Plasmodium falciparum 3D7 (drug-susceptible) proliferation in erythrocyte-based infection assay; format: functional, organism-based; conditions: Plasmodium falciparum, 3D7
[2] = NOVARTIS: Cytotoxicity against human hepatocellular carcinoma cell line (Huh7); format: toxicity, cell-based, Huh-7; conditions: Huh7 cells (hepatocellular carcinoma cell line)
Plasmodium falciparum [3] = assay: NOVARTIS: Inhibition of Plasmodium falciparum W2 (drug-resistant) proliferation in erythrocyte-based infection assay; format: functional, organism-based; conditions: Plasmodium falciparum, W2; read-out: EC50

Row | Compound | EC50 (Plasmodium falciparum [1]) [µM] | CC50 [2] [µM] | EC50 (Plasmodium falciparum [3]) [µM]
1 | CCN1CCN(Cc2ccc(-c3cc4c(N[C@H](C)c5ccccc5)ncnc4[nH]3)cc2)CC1 [AEE-788] | 1.38 | 27.8 | 0.0285
2 | CCC[n+]1cccc2ccc3cccnc3c21 | 0.21 | 44.3 | 0.756
3 | COc1cncc(-c2cncc(-c3ccc(C)cc3)n2)c1 | 0.0949 | > 100 | 0.0852
4 | COc1ccccc1CN1CCc2nc(N3CCCCC3)sc2C1 | 0.454 | > 10 | 0.277
5 | Cc1cc(NC(c2cccc(Br)c2)c2ccc3cccnc3c2O)no1 (configuration not stated) | 0.267 | > 22.8 | 0.4
6 | Cc1cc(NC(=O)C=Cc2ccccc2Cl)ccc1Br | 1.27 | > 100 | 0.344
7 | O=C(NC1CCN(Cc2ccccc2)CC1)c1cc([N+](=O)[O-])cc([N+](=O)[O-])c1 | 0.476 | > 10 | 1.22
8 | c1ccc(-c2cc(N3CCc4ccccc4C3)nc(-c3ccccn3)n2)nc1 | 0.251 | > 10 | 1.11
9 | C=CCOC(=O)C1=C(C)N=C2SCCC(=O)N2C1c1ccc(OC(=O)c2ccco2)cc1 (configuration not stated) | > 12.4 | > 100 | > 11.9
10 | CCC(Sc1nnc(-c2ccc(C)cc2)c(-c2ccc(C)cc2)n1)C(=O)NCCOC (configuration not stated) | 0.477 | 77 | 0.753
11 | CSc1nc(N)c2c3c(sc2n1)CCCC3 | > 1.25 | > 10 | > 0.253
12 | CCc1ccccc1NC(=O)C1c2ccccc2C(=O)N(CC(C)C)C1c1cccs1 (configuration not stated) | 0.364 | > 97.2 | 0.27
13 | COc1ccc(C=C2N=C(c3ccc(Cl)cc3)N(c3cc(Cl)ccc3C)C2=O)cc1OC | 3.48 | > 100 | 1.31
14 | O=C(NC1CCCCC1)c1noc2c1CCCCC2 | > 12.5 | > 100 | 5.67
15 | Cc1cc(C)cc(C(=O)Nc2c3c(nn2-c2cccc(C)c2C)CS(=O)(=O)C3)c1 | 0.329 | > 10 | 0.358
16 | c1ccc(Nc2nc(-c3ccccn3)cs2)nc1 | 0.114 | 18.6 | 0.0585
17 | CCOc1ccc(C2C(C(=O)OCCc3ccccc3)=C(C)NC3=C2C(=O)CC(C)(C)C3)cc1 (configuration not stated) | 10.7 | > 100 | 2.94
18 | COc1cc(C=NNC(=O)Cc2nnc(N)s2)ccc1O | > 1.25 | > 12.7 | > 1.11
19 | O=C(Nc1ccc(Br)cc1C(=O)c1ccccc1)c1cc2nc(-c3cccs3)cc(C(F)(F)F)n2n1 | > 12.5 | > 100 | 1.76
20 | CN(CCCNc1ccnc2cc(Cl)ccc12)C(=O)CSc1ccccc1 | 0.00717 | > 10 | 0.0203
21 | COc1cccc(-c2ccc(O)c(CN3CCC(Cc4ccccc4)CC3)c2)n1 | 0.306 | 38.5 | 0.0861
22 | N=C(NN=Cc1ccc([N+](=O)[O-])cc1)NN=Cc1ccc([N+](=O)[O-])cc1 | 0.28 | > 100 | 0.271
23 | CCc1ccc(C=NNC(=O)COc2ccc3c(c2)OCO3)cc1 | > 1.23 | > 10 | > 0.975

Row | Compound | EC50 (Plasmodium falciparum [1]) [µM] | CC50 [2] [µM] | EC50 (Plasmodium falciparum [3]) [µM]
24 | Cc1ccc(NC(=O)C(C)Sc2nnc(-c3ccc(O)cc3)o2)cc1 (configuration not stated) | > 1.25 | > 10 | 0.601
25 | CCOc1cccc(Nc2cc(C)nc3ncnn23)c1 | 0.679 | > 100 | 0.729
26 | CCNC(=O)N1CCN(CCN(C/C=C/c2ccccc2OC)C(=O)CC(C)CC(C)(C)C)CC1 (configuration not stated) | > 1.25 | > 10 | 1.43
27 | Cc1ncc([N+](=O)[O-])n1CCOC(=O)c1c(NC(=O)c2ccccc2)sc2c1CCCC2 | 2.6 | > 100 | 2
28 | Cc1ccnc(NC(c2cccc(Cl)c2Cl)c2ccc3cccnc3c2O)c1 (configuration not stated) | 0.152 | > 49 | 0.144
29 | O=C(Nc1nc(-c2ccccn2)cs1)c1ccc(Oc2ccc(C(=O)Nc3nc(-c4ccccn4)cs3)cc2)cc1 | 2.23 | > 100 | 0.602
30 | CN(CCCNc1ccnc2cc(Cl)ccc12)C(=O)c1ccc(Cl)c([N+](=O)[O-])c1 | 0.137 | > 7.92 | 0.226
31 | COc1ccc(Cn2nnnc2CN2CCc3ccccc3C2)cc1 | > 0.853 | > 10 | > 1.25
32 | CCCC(c1nnnn1C1CCCCC1)N1CCN(C(=O)c2ccco2)CC1 (configuration not stated) | 1.33 | > 100 | 0.616
33 | O=S(=O)(NCCCCNc1ccnc2cc(Cl)ccc12)c1cc(Cl)ccc1Cl | 0.391 | > 10.7 | 0.338
34 | O=C(Nc1ccc(-n2cccn2)cc1)C1CCN(C/C=C/c2ccccc2)CC1 | 0.464 | > 10 | 1.54
35 | N#C/C(=C\c1ccccc1OCc1ccc(Cl)cc1Cl)c1nc2ccccc2[nH]1 | 0.348 | > 10 | > 0.772
36 | COc1ccc(C=NNc2cc(C)nc(-c3ccccc3)n2)cc1OC | 8.51 | 48.9 | 3.3
37 | Cc1ccc(NC(=O)N2CCN(C(=O)c3nc(-c4ccccc4)nc(C)c3C(=O)OC(C)C)CC2C)c(C)c1 (configuration not stated) | > 0.271 | > 10 | 0.336
38 | CN(C)CC(O)Cn1c2ccccc2c2ccccc21 (configuration not stated) | > 11.7 | 52.8 | 0.275
39 | CCCCCCCc1ccc(-c2nnc(-c3ccc([N+](=O)[O-])cc3)o2)cc1 | > 1.25 | > 10 | > 0.459
40 | Fc1ccc(N2CCN(c3ncnc4c3cnn4-c3ccccc3)CC2)cc1 | > 12.5 | > 100 | 3.78
41 | O=C(NCC1CCCO1)c1cc(S(=O)(=O)N2CCCCC2)c[nH]1 (configuration not stated) | > 1.25 | > 10 | > 0.86
42 | CCCCNC(=O)N(CCCC(C)Nc1cc(OC)cc2cccnc12)Cc1ccc(OC)c(OC)c1 (configuration not stated) | 1.27 | > 4.47 | 0.422
43 | O=C1NCCCCC1N(Cc1cccc(Oc2ccccc2)c1)C(=O)c1ccc(F)cc1 (configuration not stated) | > 1.06 | > 10 | > 1.25
44 | CCc1cc2c(NCCN3CCCCC3)ncnc2s1 | 1.32 | > 96.1 | 0.466
45 | O=C(Nc1ccc(C2=NCCN2)cc1)Nc1cc(C(=O)Nc2ccc(C3=NCCN3)cc2)ccc1C(=O)Nc1ccc(C2=NCCN2)cc1 | 0.0997 | > 10 | 0.0629
46 | Clc1ccc2[nH]c3c(NCCC4=CCCCC4)ncnc3c2c1 | 0.988 | 15.8 | 2

Row | Compound | EC50 (Plasmodium falciparum [1]) [µM] | CC50 [2] [µM] | EC50 (Plasmodium falciparum [3]) [µM]
47 | CCC(Sc1nc(C)cc(-c2ccccc2)n1)C(=O)Nc1cccc2ccccc12 (configuration not stated) | > 1.25 | > 10 | 0.496
48 | COc1cc(-c2cc(C)c3c(OC)ccc(OC)c3n2)cc2c1OCCN(C(=O)CCn1nc(C)cc1C)C2 | 2.71 | > 100 | 0.913
49 | Cc1ccn(CC(=O)N2CCOc3c(cc(-c4csc5ccccc45)cc3OCCc3ccccn3)C2)n1 | 0.823 | 39 | 0.73
50 | CSc1nc(SC)c2c3c(sc2n1)CN(C)CC3 | 0.75 | > 100 | 0.881
51 | c1ccc(Oc2cccc(CN3CCc4nc(N5CCCCC5)sc4C3)c2)cc1 | 0.294 | > 10 | 0.173
52 | CCOc1cccc(C2=Nc3cc(C(=O)NC(C)C)ccc3CN2CC2CCCCC2)c1 | > 1.25 | > 10 | 0.0267
53 | CC(C)(C)c1ccc2[nH]c3c(c2c1)CCCC3=NO | 5.02 | 20.9 | 0.831
54 | COC(CNC(=O)c1c[nH]c2ccc(S(=O)(=O)N3CCN(C)CC3)cc2c1=O)OC | > 12.5 | > 100 | 2.86
55 | CCCCOc1cccc(C(=O)N(Cc2cccs2)c2ccc(OC)cc2)c1 | 0.124 | 6.13 | 0.0621
56 | CCC1=NN2C(=N)/C(=C/c3cn(CCOc4cccc(C)c4)c4ccccc34)C(=O)N=C2S1 | > 1.25 | > 10 | > 0.572
57 | COc1ccc(OCCNC(=O)c2ccccc2Cl)cc1 | > 1.25 | > 10 | > 0.38
58 | O=C(Nc1ccccc1)c1ccccc1OCC(O)Cn1c2ccccc2c2ccccc21 (configuration not stated) | 0.282 | > 100 | 0.267
59 | Cc1cnc(C)c(-c2ccc(O)c(CNCC3(N4CCCCC4)CCCCC3)c2)n1 | 0.326 | > 7.78 | 0.0398
60 | COc1ccc(N(CC(=O)Nc2cc(OC)ccc2OC)S(=O)(=O)c2ccc(C)cc2)cc1 | > 1.25 | > 10 | > 0.583
61 | COc1ccc(C2CC(=O)C3=C(C2)NC(C)=C(C(=O)OC(C)C)C3c2cccc(C)c2)cc1OC (configuration not stated) | 0.0821 | 54.8 | 0.0192
62 | Oc1ccc(-c2nc3ccccc3s2)cc1CN1CCCCC1 | 1.14 | > 6.13 | 0.786
63 | CCN(CC)CCCC(C)Nc1c2ccc(Cl)cc2nc2ccc(OC)cc12 (configuration not stated) [QUINACRINE] | 0.00813 | 19.6 | 0.0142
64 | CCc1c(C)c(C#N)c2nc3ccccc3n2c1Nc1ccc(C)c(Cl)c1 | 1.09 | > 100 | 0.233
65 | Cc1ccc(Nc2nc(NN=Cc3ccc(-c4ccc(Cl)c([N+](=O)[O-])c4)o3)nc(N3CCOCC3)n2)c(Br)c1 | > 1.06 | > 10 | 1.32
66 | C[n+]1c(C=Cc2ccc(F)cc2)ccc2ccccc21 | 8.11 | > 100 | 11.1
67 | Cc1ccc2c(nc3sc(=Cc4ccc(-c5ccccc5F)o4)c(=O)n32)c1C | 0.921 | > 10 | > 1.25
68 | C[C@@H]1CC[C@H]2[C@@H](C)C(=O)O[C@@H]3O[C@@]4(C)CC[C@@H]1[C@]32OO4 [ARTEMISININ] | 0.043 | > 10 | 0.0103
69 | Cc1ccc(-c2nc3ncccc3o2)cc1NC(=O)COc1ccc(C(C)(C)C)cc1 | 0.42 | > 100 | 1.05
